Test results published in patent US9289503B2, “Fatty acid fumarate derivatives and their uses” (Catabasis Pharmaceuticals, Inc., priority 2010, dated 2016).
Where a name gives a salt, the structure may show the parent alone.

These molecules were tested on Hmox1 (assay: Hmox1 target gene expression in RAW264.7 macrophages). Details: RAW264.7; 50 μM and 100 μM; FIG. 4.
Assay type: cell-based
Protocol: RAW264.7 macrophages are seeded at a density of 100,000 cells/well in a 96-well plate in DMEM supplemented with 10% FBS and Penn/strep. 16 hours later, medium is aspirated and replaced with 90 μl/well of serum-free DMEM. A fatty acid fumarate conjugate, DHA and EPA are brought up in 100% EtOH to a concentration of 100 mM and then diluted 1:100 In 100% FBS for a 20× stock solution consisting of 1 mM compound and 1% EtOH. The fatty acid fumarate conjugate 20× stock solutions are diluted 1:2 in FBS supplemented with 1% EtOH for a 500 uM 10× stock solution, whereas equal volumes of the DHA and EPA 20× stock solutions are mixed to create a 10× stock solution containing 500 μm each of DHA and EPA. […] The compounds are allowed to pre-incubate for 2 hours before stimulation of 100 ng/ml LPS (10 μl of 1 μg/ml LPS is added to each well). Following 3 hours of LPS stimulation, cells are washed once in 1× PBS, aspirated dry, and flash frozen in liquid nitrogen. RNA is then isolated and converted to cDNA using the Cells to cDNA kit (Ambion) according to the manufacturer's protocol. Transcript levels are then measured using ABI Taqman primer/probe assay kits, normalized to GAPDH using the deltaCt method, and the data expressed relative to vehicle only control.

Row | Structure (SMILES) | effect on the target gene Hmox1
1 | COC(=O)/C=C/C(=O)NCCNC(=O)CCCC[C@@H]1CCSS1 [Compound I-105, (R,E)-methyl 4-(2-(5-(1,2-dithiolan-3-yl)pentanamido)ethylamino)-4-oxobut-2-enoate] | positive effect

What follows are molecules tested on NF-κB (assay: NF-κB luciferase reporter assay in RAW 264.7 macrophages). Details: Mus musculus, RAW264.7; RAW 264.7 cells with 3× NFκB response element luciferase reporter; 2 hour pretreatment, 200 ng/ml LPS for 3 hours; read-out: NF-kB inhibitory activity.
Assay type: cell-based
Protocol: RAW 264.7 cells stably expressing a 3× NFκB response elemement-drive luciferase reporter were seeded into 96 well plates in sera-free medium (Optimem) 18 hours prior to compound application. Compounds of the invention were prepared by first making […] stock solutions in EtOH. Stock solutions were then diluted 1:100 in low LPS FBS (Gemini BenchMark 100-106), mixed vigorously and allowed to incubate at room temperature for 30 minutes, 1:2 serial dilutions were then made in FBS supplemented with 1% EtOH, mixed vigorously, and again allowed to incubate at room temperature for 30 minutes before adding to RAW 264.7 reporter cells (final concentrations: 10% FBS, 100 uM highest compound dilution, 0.1% EtOH) for a 2 hour pretreatment prior to stimulation with LPS. Cells were then stimulated with 200 ng/ml LPS or vehicle control for 3 hours in the presence of the compounds of the invention. A set of six vehicles was left unstimulated with LPS in order to measure the assay floor. AlamarBlue viability dye (Invitrogen) was added to cells simultaneously with the delivery of LPS (final AlamarBlue concentration of 10%). After the 3 h incubation period with LPS, cell viability was measured by reading fluorescence (excitation 550 nm, emission 595 nm) with a Perkin Elmer Victor V plate reader. Then cell media was aspirated from each well. Luciferase signal was then developed by addition of the Britelite Plus reagent (Perkin Elmer). Luciferase activity was measured with the Perkin Elmer Victor V plate reader. NF-κB activity was expressed as a percent of the vehicle control wells (stimulated with LPS). Compounds were tested at 6 dose point titrations in triplicate to determine IC50 values.
Table 1 summarizes the IC50 values for a number of fatty acid fumarate conjugates in this NF-κB luciferase reporter assay. In this table, MMF=mono methyl fumarate.

Row | Structure (SMILES) | IC50 [µM]
2 | CC/C=C\C/C=C\C/C=C\C/C=C\C/C=C\C/C=C\CCC(=O)NCCSSCCNC(=O)/C=C/C(=O)OC [Compound I-5, (E)-methyl 4-(2-(2-(2-(4Z,7Z,10Z,13Z,16Z,19Z)-docosa-4,7,10,13,16,19-hexaenamidoethyl)disulfanyl)ethylamino)-4-oxobut-2-enoate] | 50 to 200
3 | CC/C=C\C/C=C\C/C=C\C/C=C\C/C=C\C/C=C\CCC(=O)NCCNC(=O)/C=C/C(=O)OCC [Compound I-66, (E)-ethyl 4-(2-(4Z,7Z,10Z,13Z,16Z,19Z)-docosa-4,7,10,13,16,19-hexaenamidoethylamino)-4-oxobut-2-enoate] | 50 to 200
4 | CC/C=C\C/C=C\C/C=C\C/C=C\C/C=C\CCCC(=O)N[C@@H](CCCCNC(=O)/C=C/C(=O)OC)C(=O)O [Compound I-72, (S)-2-((5Z,8Z,11Z,14Z,17Z)-icosa-5,8,11,14,17-pentaenamido)-6-((E)-4-methoxy-4-oxobut-2-enamido)hexanoic acid] | 50 to 200
5 | CC/C=C\C/C=C\C/C=C\C/C=C\C/C=C\C/C=C\CCC(=O)NCCOC(=O)/C=C/C(=O)OC [Compound I-103, 2-(4Z,7Z,10Z,13Z,16Z,19Z)-docosa-4,7,10,13,16,19-hexaenamidoethyl methyl fumarate] | 50 to 200

Next, values leading:

Row | IC50 [µM] | Structure (SMILES)
6 | 50 to 200 | CC/C=C\C/C=C\C/C=C\C/C=C\C/C=C\C/C=C\CCC(=O)NCCN1C(=O)CC(SC[C@H](NC(=O)/C=C/C(=O)OC)C(=O)OC)C1=O (stereo partly drawn) [Compound I-39, (E)-methyl 4-((R)-3-(1-(2-(4Z,7Z,10Z,13Z,16Z,19Z)-docosa-4,7,10,13,16,19-hexaenamidoethyl)-2,5-dioxopyrrolidin-3-ylthio)-1-methoxy-1-oxopropan-2-ylamino)-4-oxobut-2-enoate]
7 | 50 to 200 | CC/C=C\C/C=C\C/C=C\C/C=C\C/C=C\C/C=C\CCC(=O)N1C[C@@H](C)N(C(=O)/C=C/C(=O)OC)[C@@H](C)C1 [Compound I-41, (E)-methyl 4-((2R,6S)-4-((4Z,7Z,10Z,13Z,16Z,19Z)-docosa-4,7,10,13,16,19-hexaenoyl)-2,6-dimethylpiperazin-1-yl)-4-oxobut-2-enoate]
8 | ≥ 100 | CC/C=C\C/C=C\C/C=C\C/C=C\C/C=C\C/C=C\CCC(=O)NCCNC(=O)/C=C/C(=O)O [Compound I-102, (E)-4-(2-(4Z,7Z,10Z,13Z,16Z,19Z)-docosa-4,7,10,13,16,19-hexaenamidoethylamino)-4-oxobut-2-enoic acid]
9 | ≥ 100 | CC/C=C\C/C=C\C/C=C\C/C=C\C/C=C\C/C=C\CCC(=O)N(C)CCN(C)C(=O)/C=C/C(=O)OC [Compound I-104, (E)-methyl 4-(methyl(2-((4Z,7Z,10Z,13Z,16Z,19Z)-N-methyldocosa-4,7,10,13,16,19-hexaenamido)ethyl)amino)-4-oxobut-2-enoate]
10 | ≥ 100 | COC(=O)/C=C/C(=O)O [MMF, mono methyl fumarate, reference compound]

Same assay, conditions: RAW 264.7 cells with 3× NFκB response element luciferase reporter; 2 hour pretreatment, 200 ng/ml LPS for 3 hours

Row | Structure (SMILES) | NF-kB inhibitory activity
11 | CC/C=C\C/C=C\C/C=C\C/C=C\C/C=C\CCCC(=O)NCCNC(=O)/C=C/C(=O)OC [Compound I-2, (E)-methyl 4-(2-(5Z,8Z,11Z,14Z,17Z) -eicosa-5,8,11,14,17-pentaenamidoethylamino)-4-oxobut-2-enoate] | + +
12 | CC/C=C\C/C=C\C/C=C\C/C=C\C/C=C\C/C=C\CCC(=O)NCCOCCNC(=O)/C=C/C(=O)OC [Compound I-3, (E)-methyl 4-(2-(2-(4Z,7Z,10Z,13Z,16Z,19Z)-docosa-4,7,10,13,16,19-hexaenamidoethoxy)ethylamino)-4-oxobut-2-enoate] | + +
13 | CC/C=C\C/C=C\C/C=C\C/C=C\C/C=C\C/C=C\CCC(=O)NCCN(C)CCNC(=O)/C=C/C(=O)OC [Compound I-4, (E)-methyl 4-(2-((2-(4Z,7Z,10Z,13Z,16Z,19Z)-docosa-4,7,10,13,16,19-hexaenamidoethyl)(methyl)amino)ethylamino)-4-oxobut-2-enoate] | + +
14 | CC/C=C\C/C=C\C/C=C\C/C=C\C/C=C\C/C=C\CCC(=O)NCCCC[C@H](NC(=O)/C=C/C(=O)OC)C(=O)OC [Compound I-6, (S)-methyl 6-((4Z,7Z,10Z,13Z,16Z,19Z)-docosa-4,7,10,13,16,19-hexaneamido)-2-((E)-4-methoxy-4-oxobut-2-enamido)hexanoate] | + +
15 | CC/C=C\C/C=C\C/C=C\C/C=C\C/C=C\C/C=C\CCC(=O)NCC(C)(C)NC(=O)/C=C/C(=O)OC [Compound I-22] | + +

Other lines, results leading:

Row | NF-kB inhibitory activity | Structure (SMILES)
16 | + + | CC/C=C\C/C=C\C/C=C\C/C=C\C/C=C\C/C=C\CCC(=O)N1CCN(C(=O)/C=C/C(=O)OC)CC1 [Compound I-40, (E)-methyl 4-(4-(4Z,7Z,10Z,13Z,16Z,19Z)-docosa-4,7,10,13,16,19-hexaenoylpiperazin-1-yl)-4-oxobut-2-enoate]
17 | + + | CC/C=C\C/C=C\C/C=C\C/C=C\C/C=C\C/C=C\CCC(=O)NCCNC(=O)/C=C/C(=O)OC [Compound I-67]

Each molecule was assayed on IL-1β (assay: IL-1β gene expression in LPS-stimulated RAW264.7 macrophages). Details: RAW264.7; 50 μM and 100 μM; FIG. 4.
Assay type: cell-based
Protocol: RAW264.7 macrophages were seeded at a density of 100,000 cells/well in a 96-well plate in DMEM supplemented with 10% FBS and Penn/strep. 16 hours later, medium was aspirated and replaced with 90 μl/well of serum-free DMEM. A fatty acid fumarate conjugate, DHA and monomethyl-fumarate (MMF) were brought up in 100% EtOH to a concentration of 100 mM and then diluted 1:100 in 100% FBS for a stock solution consisting of 1 mM compound and 1% EtOH. these stock solutions were then diluted 1:10 in FBS supplemented with 1% EtOH to generate a 100 μM of a fatty acid fumarate conjugate and 100 μM each of DHA and MMF. 10 μl was then added to the RAW246.7 cells to generate final concentrations 10 μM of the fatty acid fumarate conjugate or 10 μM each DHA and MMF, along with vehicle only control. […] IL-1β and TNF-α transcript levels were then measured using Taqman primer/probe assay sets (Applied Biosystems), normalized to GAPDH using the deltaCt method, and the data expressed relative to vehicle only control. […]
RAW264.7 macrophages are seeded at a density of 100,000 cells/well in a 96-well plate in DMEM supplemented with 10% FBS and Penn/strep. […] Transcript levels are then measured using ABI Taqman primer/probe assay kits, normalized to GAPDH using the deltaCt method, and the data expressed relative to vehicle only control.

Row | Structure (SMILES) | effect on IL-1β target gene expression
18 | COC(=O)/C=C/C(=O)NCCNC(=O)CCCC[C@@H]1CCSS1 [Compound I-105, (R,E)-methyl 4-(2-(5-(1,2-dithiolan-3-yl)pentanamido)ethylamino)-4-oxobut-2-enoate] | positive effect
